According to US9707244B2, “Compositions and methods for treating conditions that affect epidermis” (Gencia Corporation, priority 2013, dated 2017):
“Also recorded” adds a separate entry of the source.

What was measured:
adult participants = test: Double-blind, randomized, placebo-controlled study of 0.1% Mitocreatine lotion on the dorsum of the hand; type: in vivo, human
Method: This was followed by a double-blind, randomized, placebo-controlled safety and efficacy trial of 0.1% once-daily topical application of mitocreatine to the dorsum of hands. […]. After obtaining informed consent, participants were interviewed by a physician for screening for history of skin disease, allergy and general medical issues. An initial evaluation of skin on the dorsum of the hand was performed. Qualifying participants were issued the test articles and self-assessment forms, and instructed to apply the “Right hand” and “Left hand” vial contents to the dorsum of respective hands once daily, preferably in the evening. Participants were allowed the use of other cosmetics. Once a week the participants filled out the self-assessment forms as instructed during the initial evaluation. The questions in the forms pertained to comparisons of wrinkling, color, pigmented lesions, hydration, roughness and elasticity of skin between right and left hand. One question also elicited the subjective overall impression of skin appearance (better vs. worse) between the hands. […] The participants and the evaluator were blinded to the treated side until after the exit evaluation was finished.
Before the start of study a set of 30 consecutively numbered pairs of bottles containing drug or placebo creams was generated. Of these 30 pairs of bottles 15 pairs treated the right side treated and 15 pairs treated the left side with the drug. The order of right vs. left treatment pairs was random. Participants were assigned a number in the order of recruitment. 17 subjects participated in the study, whereof 15 completed the study. Two subjects dropped out of the study due to non-study related causes. Of the 15 remaining individuals, 9 had their right hand treated whereas 6 had their left hand treated. Data from initial and exit evaluations and self-report forms were tabulated and analyzed using Fisher's exact test and Pearson's chi-squared test. Skin on the dorsum of participants' hands was evaluated by a physician at the initial evaluation and at the conclusion of the study. None of the volunteers had lesions disqualifying from participation (neoplasm, large vascular lesions, wounds, burns, large scars).
The weekly self-report forms included questions about the following adverse outcomes: itching, redness, pain, swelling, blistering, other discoloration, skin cracking and dryness. Participants were also provided with a contact number and instructed to immediately report any of the listed or other worrisome events.

[1] = tested on: ARPE-19 cells, a retinal pigmented epithelial cell line; test: WST-1 cell viability in senescent ARPE-19 cells; type: cell-based, human; conditions: up to 1 uM; twenty-four hours after treatment
Method: In the present invention ARPE-19 cells were used to evaluate whether Mitocreatine improves mitochondrial parameters and reduces ROS in a cell model of AMD. The cells were prematurely senescenced according to the protocol of Glotin et al. (2008). […] Cells were plated in a 96 well plate for analysis of WST-1 bioreduction, a formazan based dye similar to MTT whose bioreduction is largely dependent on the glycolytic production of NAD(P)H in viable cells and is routinely used to monitor cell viability.

[2] = tested on: AG11073 untransformed human skin fibroblasts from a person; test: Cellular senescence assay (SA-β-Gal fluorometric), aged fibroblasts; type: cell-based; conditions: 5 nM to 200 nM, p<0.01 for 5-100 nM, p<0.05 for 200 nM
Source text: Senescent cells show common biochemical markers such as expression of an acidic senescence-associated β-galactosidase (SA-β-Gal) activity. While senescence has been characterized primarily in cultured cells, there is also evidence that it occurs in vivo. Cells expressing markers of senescence such as SA-β-Gal have been identified in normal tissues. To determine whether modified Mitocreatine analogues may influence the scenesence in aged fibroblasts, a 96-well Cellular Senescence Assay (SA-β-Gal Fluorometric Format) Cat # CBA-231 Cell Biolabs, Inc. was employed and buffers referenced were supplied by the manufacturer and in some cases freshly prepared prior to usage according to the manufacturer's instructions.
The cells utilized were Human Skin Fibroblast acquired from Coriell Cell Repository. The cell line AG11073 is untransformed human skin fibroblasts from a person. The primary culture was initiated from explants of a 2 mm-punch biopsy. The cell line AG16409 was untransformed human skin fibroblasts from a person.
Cells were grown in a 96 well plate. […]
50 μL, of the reaction mixture was removed to a 96-well plate suitable for fluorescence measurement. The reaction was stopped by adding 200 μL of Stop solution and fluorescence was measured with a fluorescence plate reader (PHERA Star FS from BMG Labtech) at 360 nm (Excitation)/465 nm (Emission).

CN(CC(=O)NCCC[P+](c1ccccc1)(c1ccccc1)c1ccccc1)C(=N)N.Cl.[Cl-] [Mitocreatine, N^2-[ammonio(imino)methyl]-N^2-methyl-N-[3-(triphenylphosphonio)propyl] glycinamide dichloride]
adverse outcomes reported by participants (adult participants; 0.1% lotion once daily, four weeks): No adverse outcomes
pathological changes noted by the evaluating physician (adult participants; 0.1% lotion once daily, final follow-up visit): No pathological changes
participants who correctly identified the treated hand (adult participants; 13/15, p=0.0074 by binomial test): 87%
participants with improvement in wrinkles (adult participants; drug hand, 7/15, p=0.0033): 45%
participants with an improvement in general skin health (adult participants; drug hand, 11/15, p=0.00025): 73%
participants with improvement in thickness (adult participants; drug hand, 13/15, p=0.0029): 87%
participants with improvement in tightness (adult participants; drug hand, 13/15, p=0.019): 87%
participants reporting an improvement in at least two measures (adult participants; drug hand, 14/15, 0.1% lotion, four weeks, p=0.0142): 93%
cell viability (WST-1) [1]: does not negatively impact cell viability
β-galactosidase expression/activity (senescence marker) [2]: statistically significant decrease; also recorded: retards senescence
